From PMC4374867, “The Novel Tubulin Polymerization Inhibitor MHPT Exhibits Selective Anti-Tumor Activity against Rhabdomyosarcoma In Vitro and In Vivo” (PLoS ONE, 2015)

Tested on: T1, tubulin (alpha- and beta-tubulin)
T1 construct: with alpha-/beta-tubulin heterodimer
Assay: cell-free fluorescence-based tubulin polymerization assay (Cytoskeleton BK011P)
Format: biochemical, Bos taurus

Work on `COc1cccc(C=C2SC(=Nc3ccc(O)cc3)NC2=O)c1` [MHPT, 2-((4-hydroxyphenyl)imino)-5-(3-methoxybenzylidene)thiazolidin-4-one] yielded an IC50 of 6.28 µM.
